Experiments:
Type in all cases: cell-based, human
Details in all cases: diclofenac 1 mM, 24 h
[1] = test system: CD14^+ monocytes; assay: HDL+SAA1-induced cytokine secretion by ex vivo CD14+ monocytes (ELISA)
Method: Isolation of Peripheral Blood Monocytes. Peripheral blood monocytes were isolated using a two-step process. Peripheral blood was diluted with PBS at a 1:1 ratio, slowly overlaid onto 30 ml of Lymphoprep™ (catalog #07811, StemCell Technologies, Vancouver Canada) in a 50 ml conical tube, and centrifuged at 400×g for 25 min without braking. The peripheral blood mononuclear cell (PBMC) layer was carefully transferred to another 50 ml conical tube, washed with PBS, followed by two washes with FACS buffer (0.5 mM EDTA, 1% BSA, and 1% mouse serum in PBS). Monocytes subsets were identified and sorted by flow cytometry using the following antibodies: PE mouse anti-human CD45 clone HI30 (catalog #555483), BV421 mouse anti-human CD14 clone MφP9 (catalog #563743), and FITC mouse anti-human CD16 clone B73.1 (catalog #561308), and a FACS ARIA Fusion sorter equipped with 355, 407, 488, 532 and 640 nm LASER lines using FACS DIVA 8.0 software (all from BD Biosciences, San Jose, Calif.). The gating strategy identified a population of debris-free, single, live, ^SSCmoderate/high, CD45^+ cells from which CD14^+/CD16^− (classical), CD14^+/CD16^+ (intermediate), CD14^dim/CD16^+ (non-classical), and CD14^+ (classical and intermediate) cells were sorted and utilized for experiments, as indicated (Supplemental FIG. 4).
HDL+SAA1 Stimulation of Peripheral Blood Monocytes Subsets. […] As previously described, normal HDL was isolated from plasma obtained from healthy subjects by sequential KBr differential gradient ultracentrifugation at 330,000 g and extensive dialysis with 50 mM HEPES, 50 mM NaCL, 5 mM MgCl2 and 2 mM CaCl2, pH 7.0, at 4° C. Normal HDL was complexed with recombinant human serum amyloid A-1 at a 2:1 ratio by mixing and incubated at RT overnight to generate HDL+SAA1, which was filtered using a 100-kDa exclusion filter (Amicon Ultra Centrifuge Filters, Millipore, Darmstadt, Germany) to remove any uncomplexed SAA1. Normal HDL was also complexed with the amount of lipopolysaccharide (catalog # L4391, E. coli 0111:B4, y-irradiated, MilliporeSigma, St. Louis, Mo.) present in recombinant human SAA1. Additionally, classical CD14^+ monocytes were treated with the P2X7R antagonist, A438079, the IKK inhibitor, BAY-11-7082, the IKKβ (IKK-2) inhibitor, TPCA-1, or the selective COX-2 inhibitor, celexocib, all from MilliporeSigma(St. Louis, Mo.). Cells were also treated with the FPR2 antagonist, WRW4, or diclofenac from Tocris (Minneapolis, Minn.). The amount of IL-1β, IL-6, TNF-α and IL-10 secreted into cell culture supernatants was quantified using human DuoSet ELISA kits (R&D Systems) and data were acquired using a SpectraMax M2 spectrophotometer (Molecular Devices, San Jose, Calif.). Western blotting, as previously described^43, was performed using antibodies directed against COX-1 (catalog #160110) and COX-2 (catalog #160112), both from Cayman Chemical (Ann Arbor, Mich.). Equivalency of protein loading was established using an antibody directed against GAPDH (catalog #MAB5718) from R&D Systems (Minneapolis, Minn.). Western blots images were captured using an iBright FL1000 Western Blot Imaging System (ThermoFisher Scientific, Waltham, Mass.) and quantified using NIH ImageJ software (imagej.nih.gov). […]

[2] = test system: CD14^+ monocytes; assay: as above; remark: listed apart in the source
[3] = test system: CD14^+ monocytes; assay: PGE2 and TXB2 secreted by CD14+ monocytes cultured with HDL+SAA1
Excerpt: FIG. 4 illustrates that HDL enriched with serum amyloid A (HDL+SAA1) induces cytokine secretion from CD14+ monocytes via a P2X7R/NF-κB/COX-2-dependent pathway. a, Volcano plot showing differentially expressed mRNA transcripts from classical CD14+/CD16− monocytes from asthmatics (n=10) that were stimulated ex vivo with or without HDL enriched with recombinant human SAA1 (HDL+SAA1). Additional experiments utilized ex vivo cultures of CD14^+ monocytes isolated by flow cytometry from healthy subjects to characterize the HDL+SAA1-mediated P2X7R/NF-κB/COX-2-dependent pathway, except where indicated. b, PTGS2 mRNA levels were quantified by qRT-PCR in cells stimulated with normal HDL or HDL+SAA1 and presented as RQ (relative quantification). n=7 subjects, pairwise comparisons of all groups vs. media, repeated measures one-way ANOVA with Dunnett's multiple comparisons test. c, Western blot showing COX-1 and COX-2 protein in cells stimulated with normal HDL or HDL+SAA1. GAPDH is shown as a control for equivalency of protein loading. The Western blot shown is representative of 3 independent experiments using cells from different subjects. […]

For `O=C(O)Cc1ccccc1Nc1c(Cl)cccc1Cl` [diclofenac, 2-[(2,6-dichlorophenyl)amino] benzeneacetic acid], the “HDL+SAA1-mediated secretion of IL-6” value [1] was “significantly inhibited”, the “HDL+SAA1-mediated secretion of IL-10” value [1] was “significantly inhibited” and the “HDL+SAA1-mediated secretion of TNF-α” value [1] was “significantly inhibited”. The “HDL+SAA1-mediated secretion of IL-13” value [2] was “significantly inhibited”, the “HDL+SAA1-induced increase in prostaglandin E2” value [3] was “suppressed” and the “HDL+SAA1-induced increase in thromboxane B2” value [3] was “suppressed”.

— patent US20230017266A1, “Cyclooxygenase-2 Inhibition for the Treatment of SAA-high Asthma” (THE USA, AS REPRESENTED BY THE SECRETARY, DEPT. OF HEALTH …, priority 2019, published 2023)
